Experimental data published in patent publication US20250271439A1, “PROTEOMIC SIGNATURE OF PLASMA EXTRACELLULAR VESICLES CLASSIFIES RESPONSE TO DOXORUBICIN AND CANCER” (Washington University, priority 2022, published 2025).

Assays:
sarcoma patients = experiment: Tumor response to doxorubicin monotherapy assessed by RECIST version 1.1 (SARC021 trial); assay type: in vivo, human; details: two cycles of 75 mg/m^2 doxorubicin, 6 weeks
Method: Plasma was acquired from a cohort of 40 sarcoma patients on the doxorubicin monotherapy control arm of the international, open-label, prospective, randomized, phase 3, multicenter SARC021 trial (TH CR-406)^16. SARC021 was conducted at 81 academic or community investigational sites across 13 countries, and one arm of the trial treated patients with doxorubicin alone, the standard of care. Samples were obtained from 8 different sarcoma subtypes in the cohort, including angiosarcoma (AS), epitheloid sarcoma (EPI), leiomyosarcoma (LMS), liposarcoma (LS), myxofibrosarcoma (MFS), malignant peripheral nerve sheath tumor (MPNST), rhabdomyosarcoma (PMRMS), and undifferentiated pleomorphic sarcoma (UPS). The number of patients per sarcoma subtype ranged from 1 to 13 (Table 1).
Plasma for the sarcoma cohort was acquired prior to treatment with two cycles of 75 mg/m^2 doxorubicin, and just prior to cycle 3, for a total treatment time of 6 weeks (FIG. 1A). […]
Doxorubicin treatment and plasma collection: Plasma was obtained from anonymized sarcoma patients on the TH CR-406/SARC021 clinical trial, registered with ClinicalTrials.gov as NCT01440088 and entitled “A Trial of TH-302 in Combination With Doxorubicin Versus Doxorubicin Alone to Treat Patients With Locally Advanced Unresectable or Metastatic Soft Tissue Sarcoma”^84. […] Tumor response was assessed at the end of cycle 2 using RECIST version 1.1^18. […]

plasma EV proteome = experiment: Label free quantitative proteomics of plasma EVs before versus after doxorubicin treatment; assay type: in vivo, human; details: SARC021 sarcoma cohort; also considering the patient's treatment sensitivity; FIG. 5A

COc1cccc2c1C(=O)c1c(O)c3c(c(O)c1C2=O)C[C@@](O)(C(=O)CO)C[C@@H]3O[C@H]1C[C@H](N)[C@H](O)[C@H](C)O1 [doxorubicin]
sarcoma patients considered treatment resistant (sarcoma patients; cohort of 40 sarcoma patients): 37.5%
number of sarcoma patients considered treatment resistant (sarcoma patients; of 40 sarcoma patients): 15
change in EV protein abundance, plasma samples collected before and after treatment (plasma EV proteome): no statistically significant change
